Source: patent US11053204B2, “Pyrimidinyloxy benzene derivatives as herbicides” (FMC Corporation, priority 2015, dated 2021)

Columns and labels:
Assay type in all cases: in vivo
[1] = tested on: lambsquarters (Chenopodium album); experiment: Test C preemergence, plant response rating; conditions: Chenopodium album, pre-emergence, Preemergence
Source text: (§1) Seeds of plant species selected from blackgrass (Alopecurus myosuroides), ryegrass, Italian (Italian ryegrass, Lolium multiflorum), wheat (winter wheat, Triticum aestivum), galium (catchweed bedstraw, Galium aparine), corn (Zea mays), crabgrass, large (large crabgrass, Digitaria sanguinalis), foxtail, giant (giant foxtail, Setaria faberii), johnsongrass (Sorghum halepense), lambsquarters (Chenopodium album), morningglory (Ipomoea coccinea), nutsedge, yellow (yellow nutsedge, Cyperus esculentus), pigweed (Amaranthus retroflexus), ragweed (common ragweed, Ambrosia elatior), soybean (Glycine max), barnyardgrass (Echinochloa crus-galli), oilseed rape (Brassica napus), pigweed, palmer (palmer pigweed, Amaranthus palmeri), waterhemp (common waterhemp, Amaranthus rudis), velvetleaf (Abutilon theophrasti), kochia (Kochia scoparia), surinam grass (Brachiaria decumbens), nightshade (eastern black nightshade, Solanum ptycanthum), wild poinsettia (Euphorbia heterophylla), windgrass (Apera spica-venti), and oat, wild (wild oat Avena fatua), were planted into a blend of loam soil and sand or a silt loam soil and treated preemergence with test chemicals formulated in a non-phytotoxic solvent mixture which included a surfactant.
(§2) At the same time, plants selected from these crop and weed species and also chickweed (common chickweed, Stellaria media), buckwheat, wild (wild buckwheat, Polygonum convolvulus), wild mustard (Sinapis arvensis), field poppy (Papaver rhoeas), field violet (Viola arvensis), geranium, cutleaf (cutleaf geranium, Geranium dissectum), Canada thistle (Cirsium arvense), and speedwell (bird's-eye speedwell, Veronica persica), were planted in pots containing Sunshine Redi-Earth® planting medium comprising spaghnum peat moss, vermiculite, starter nutrients and dolomitic limestone and treated with postemergence applications of test chemicals formulated in the same manner. Plants ranged in height from 2 to 18 cm (1- to 4-leaf stage) for postemergence treatments. Treated plants and controls were maintained in a greenhouse for 13 to 15 d, after which time all species were compared to controls and visually evaluated. Plant response ratings, summarized in Table C, are based on a scale of 0 to 100 where 0 is no effect and 100 is complete control. A dash (-) response means no test result.

soybean (Glycine max) = experiment: Test C preemergence, plant response rating; conditions: Glycine max, pre-emergence, Preemergence
Source text: as §1, §2

corn (Zea mays) = experiment: Test C preemergence, plant response rating; conditions: Zea mays, pre-emergence, Preemergence
Source text: as §1, §2

[2] = tested on: ryegrass, Italian (Italian ryegrass, Lolium multiflorum); experiment: Test C preemergence, plant response rating; conditions: Lolium multiflorum, pre-emergence, Preemergence
Source text: as §1, §2

[3] = tested on: morningglory (Ipomoea coccinea); experiment: Test C preemergence, plant response rating; conditions: Ipomoea, pre-emergence, Preemergence
Source text: as §1, §2

[4] = tested on: foxtail, giant (giant foxtail, Setaria faberii); experiment: Test C preemergence, plant response rating; conditions: Setaria faberi, pre-emergence, Preemergence
Source text: as §1, §2

[5] = tested on: crabgrass, large (large crabgrass, Digitaria sanguinalis); experiment: Test C preemergence, plant response rating; conditions: Digitaria sanguinalis, pre-emergence, Preemergence
Source text: as §1, §2

[6] = tested on: waterhemp (common waterhemp, Amaranthus rudis); experiment: Test C preemergence, plant response rating; conditions: Amaranthus tuberculatus, pre-emergence, Preemergence
Source text: as §1, §2

[7] = tested on: wheat (winter wheat, Triticum aestivum); experiment: Test C preemergence, plant response rating; conditions: Triticum aestivum, pre-emergence, Preemergence
Source text: as §1, §2

[8] = tested on: blackgrass (Alopecurus myosuroides); experiment: Test C preemergence, plant response rating; conditions: Alopecurus myosuroides, pre-emergence, Preemergence
Source text: as §1, §2

[9] = tested on: velvetleaf (Abutilon theophrasti); experiment: Test C preemergence, plant response rating; conditions: Abutilon theophrasti, pre-emergence, Preemergence
Source text: as §1, §2

[10] = tested on: oilseed rape (Brassica napus); experiment: Test C preemergence, plant response rating; conditions: Brassica napus, pre-emergence, Preemergence
Source text: as §1, §2

[11] = tested on: ragweed (common ragweed, Ambrosia elatior); experiment: Test C preemergence, plant response rating; conditions: Ambrosia artemisiifolia, pre-emergence, Preemergence
Source text: as §1, §2

[12] = tested on: nutsedge, yellow (yellow nutsedge, Cyperus esculentus); experiment: Test C preemergence, plant response rating; conditions: Cyperus, pre-emergence, Preemergence
Source text: as §1, §2

[13] = tested on: chickweed (common chickweed, Stellaria media); experiment: Test C postemergence, plant response rating; conditions: Stellaria media, post-emergence
Source text: as §1, §2

[14] = tested on: morningglory (Ipomoea coccinea); experiment: Test C postemergence, plant response rating; conditions: Ipomoea, post-emergence
Source text: as §1, §2

[15] = tested on: foxtail, giant (giant foxtail, Setaria faberii); experiment: Test C postemergence, plant response rating; conditions: Setaria faberi, post-emergence
Source text: as §1, §2

[16] = 62 g ai/ha, scale 0 to 100 (0 no effect, 100 complete control)
[17] = 125 g ai/ha, scale 0 to 100 (0 no effect, 100 complete control)

SMILES: CC(CC(F)(F)F)OC(=O)c1c(Br)cccc1Oc1ncc(Cl)cn1 (centres unmarked) [Compound 16, 3,3,3-trifluoro-1-methylpropyl 2-bromo-6-[(5-chloro-2-pyrimidinyl)oxy]benzoate]
- pest or weed control at 125 g/ha ([1]; 125 g ai/ha, scale of 0 to 100): 50%
- pest or weed control at 16 g/ha ([1]; 16 g ai/ha, scale 0 to 100): 0%
- pest or weed control at 31 g/ha ([1]; 31 g ai/ha, scale 0 to 100): 20%
- pest or weed control at 62 g/ha ([1]; 62 g ai/ha, scale 0 to 100): 20%
- plant injury at 125 g/ha (soybean (Glycine max); 125 g ai/ha, scale of 0 to 100): 5%
- plant injury at 16 g/ha (soybean (Glycine max); 16 g ai/ha, scale 0 to 100): 0%
- plant injury at 31 g/ha (soybean (Glycine max); 31 g ai/ha, scale 0 to 100): 0%
- plant injury at 62 g/ha (soybean (Glycine max); 62 g ai/ha, scale 0 to 100): 0%
- Corn plant response rating (crop injury, 0 = no effect, 100 = complete kill) at 62 g/ha (corn (Zea mays); 62 g ai/ha, scale of 0 to 100): 0%
- Corn plant response rating (crop injury, 0 = no effect, 100 = complete kill) at 125 g/ha (corn (Zea mays); 125 g ai/ha, scale of 0 to 100): 10%
- Corn plant response rating (crop injury, 0 = no effect, 100 = complete kill) at 16 g/ha (corn (Zea mays); 16 g ai/ha, scale 0 to 100): 0%
- Corn plant response rating (crop injury, 0 = no effect, 100 = complete kill) at 31 g/ha (corn (Zea mays); 31 g ai/ha, scale 0 to 100): 0%
- pest or weed control at 125 g/ha ([2]; 125 g ai/ha, scale of 0 to 100): 5%
- pest or weed control at 16 g/ha ([2]; 16 g ai/ha, scale 0 to 100): 0%
- pest or weed control at 31 g/ha ([2]; 31 g ai/ha, scale 0 to 100): 0%
- pest or weed control at 62 g/ha ([2]; 62 g ai/ha, scale 0 to 100): 5%
- pest or weed control at 125 g/ha ([3]; 125 g ai/ha, scale of 0 to 100): 25%
- pest or weed control at 16 g/ha ([3]; 16 g ai/ha, scale 0 to 100): 10%
- pest or weed control at 31 g/ha ([3]; 31 g ai/ha, scale 0 to 100): 0%
- pest or weed control at 62 g/ha ([3]; 62 g ai/ha, scale 0 to 100): 25%
- pest or weed control at 62 g/ha ([4]; 62 g ai/ha, scale of 0 to 100): 90%
- pest or weed control at 125 g/ha ([4]; 125 g ai/ha, scale of 0 to 100): 100%
- pest or weed control at 16 g/ha ([4]; 16 g ai/ha, scale 0 to 100): 5%
- pest or weed control at 31 g/ha ([4]; 31 g ai/ha, scale 0 to 100): 25%
- pest or weed control at 62 g/ha ([5]; 62 g ai/ha, scale of 0 to 100): 90%
- pest or weed control at 125 g/ha ([5]; 125 g ai/ha, scale of 0 to 100): 100%
- pest or weed control at 16 g/ha ([5]; 16 g ai/ha, scale 0 to 100): 5%
- pest or weed control at 31 g/ha ([5]; 31 g ai/ha, scale 0 to 100): 75%
- pest or weed control at 125 g/ha ([6]; 125 g ai/ha, scale of 0 to 100): 100%
- pest or weed control at 16 g/ha ([6]; 16 g ai/ha, scale 0 to 100): 10%
- pest or weed control at 31 g/ha ([6]; 31 g ai/ha, scale 0 to 100): 60%
- pest or weed control at 62 g/ha ([6]; 62 g ai/ha, scale 0 to 100): 85%
- plant injury at 125 g/ha ([7]; 125 g ai/ha, scale of 0 to 100): 0%
- plant injury at 16 g/ha ([7]; 16 g ai/ha, scale 0 to 100): 0%
- plant injury at 31 g/ha ([7]; 31 g ai/ha, scale 0 to 100): 0%
- plant injury at 62 g/ha ([7]; 62 g ai/ha, scale 0 to 100): 0%
- pest or weed control at 62 g/ha ([8]; 62 g ai/ha, scale of 0 to 100): 5%
- pest or weed control at 125 g/ha ([8]; 125 g ai/ha, scale of 0 to 100): 10%
- pest or weed control at 16 g/ha ([8]; 16 g ai/ha, scale 0 to 100): 0%
- pest or weed control at 31 g/ha ([8]; 31 g ai/ha, scale 0 to 100): 0%
- pest or weed control at 125 g/ha ([9]; 125 g ai/ha, scale of 0 to 100): 75%
- pest or weed control at 16 g/ha ([9]; 16 g ai/ha, scale 0 to 100): 0%
- pest or weed control at 31 g/ha ([9]; 31 g ai/ha, scale 0 to 100): 5%
- pest or weed control at 62 g/ha ([9]; 62 g ai/ha, scale 0 to 100): 50%
- plant injury at 125 g/ha ([10]; 125 g ai/ha, scale of 0 to 100): 100%
- plant injury at 16 g/ha ([10]; 16 g ai/ha, scale 0 to 100): 0%
- plant injury at 31 g/ha ([10]; 31 g ai/ha, scale 0 to 100): 50%
- plant injury at 62 g/ha ([10]; 62 g ai/ha, scale 0 to 100): 60%
- pest or weed control at 125 g/ha ([11]; 125 g ai/ha, scale of 0 to 100): 0%
- pest or weed control at 16 g/ha ([11]; 16 g ai/ha, scale 0 to 100): 0%
- pest or weed control at 31 g/ha ([11]; 31 g ai/ha, scale 0 to 100): 0%
- pest or weed control at 62 g/ha ([11]; 62 g ai/ha, scale 0 to 100): 5%
- pest or weed control at 125 g/ha ([12]; 125 g ai/ha, scale of 0 to 100): 0%
- pest or weed control at 16 g/ha ([12]; 16 g ai/ha, scale 0 to 100): 0%
- pest or weed control at 31 g/ha ([12]; 31 g ai/ha, scale 0 to 100): 0%
- pest or weed control at 62 g/ha ([12]; 62 g ai/ha, scale 0 to 100): 0%
- pest or weed control at 16 g/ha ([13]; 16 g ai/ha, scale 0 to 100): 20%
- pest or weed control at 31 g/ha ([13]; 31 g ai/ha, scale 0 to 100): 20%
- pest or weed control at 62 g/ha [13, 16]: 50%
- pest or weed control at 125 g/ha [13, 17]: 80%
- pest or weed control at 16 g/ha ([14]; 16 g ai/ha, scale 0 to 100): 5%
- pest or weed control at 31 g/ha ([14]; 31 g ai/ha, scale 0 to 100): 30%
- pest or weed control at 62 g/ha [14, 16]: 40%
- pest or weed control at 125 g/ha [14, 17]: 75%
- pest or weed control at 16 g/ha ([15]; 16 g ai/ha, scale 0 to 100): 10%
- pest or weed control at 31 g/ha ([15]; 31 g ai/ha, scale 0 to 100): 20%
- pest or weed control at 62 g/ha [15, 16]: 30%
- pest or weed control at 125 g/ha [15, 17]: 35%
